Assay [1] concerns surface FLT3 expression in MOLM-13, U937, THP-1, MV4-11, and EOL-1 AML cell lines. In words: Surface FLT3 expression in AML cell lines after FLT3 inhibitor treatment. The format is cell-based, human. Conditions: 10 μM, 48 hours.
Assay [2] relates to FLT3 surface density expression on AML blasts. In words: Surface FLT3 expression by flow cytometry on AML patient blasts. The class given is cell-based, human. Conditions: 48 hours, peripheral blood samples. On the procedure: FIG. 11 depicts the quantification of FLT3 surface density expression by flow cytometry on AML blasts before and after being treated with Midostaurin for 48 hours.
Further experiments were conducted to determine whether FLT3 expression was increased upon administration of an FLT3 inhibitor. […] FIG. 11 depicts the detection of surface FLT3 expression by flow cytometry in peripheral blood samples of patients who were treated with Midostaurin for 48 hours.

Take `CCCNc1nc(Nc2ccc(C#N)cc2)ncc1C#CCCCNC(=O)[C@H](C)N(C)C(=O)/C=C/CN(C)C` [FF-10101]: in assay [1], the “FLT3 surface expression in AML cell lines” value was “upregulated”.

`CO[C@@H]1[C@H](N(C)C(=O)c2ccccc2)C[C@H]2O[C@]1(C)n1c3ccccc3c3c4c(c5c6ccccc6n2c5c31)C(=O)NC4` [Midostaurin]: in assay [1], the “FLT3 surface expression in AML cell lines” value is recorded as “upregulated”. In assay [2], the “FLT3 surface expression on AML patient blasts” value is “upregulated”.

On to Dovitinib [Dovitinib (TKI-258)], for which the “FLT3 surface expression in AML cell lines” value in assay [1] is given as “upregulated”.

For the origin of these results see US20250179194A1, “COMPOSITIONS AND METHODS FOR IMMUNOTHERAPY TARGETING FLT3, PD-1, AND/OR PD-L1” (Cytoimmune Therapeutics, Inc., priority 2018, published 2025).
